Assay results as given in patent publication US9586974B2, “Cyclic N-acyl O-amino phenol CBI derivative” (THE SCRIPPS RESEARCH LINSTITUTE, priority 2013, dated 2017).
Read-outs that look alike come from different tables or passages of the source.

Legend:
[1] = Stability in human plasma; format: in vitro ADME
Experimental: Reagents and solvents were purchased reagent-grade and used without further purification. Pooled human plasma, with sodium citrate as an anticoagulant, was purchased from Innovative Research and stored at −20° C. THF was freshly distilled from sodium benzophenone ketyl. All reactions were performed in oven-dried glassware under an Ar atmosphere. Evaporation and concentration in vacuo was performed at 20° C. TLC was conducted using precoated SiO2 60 F254 glass plates from EMD with visualization by UV light (254 or 366 nm). Chiral phase HPLC was performed using a Shimadzu HPLC on a semi-preparative Diacel ChiralCel OD column (0.46 cm×25 cm) with a flow rate of 7 mL/min and with UV detection at λ=254 nm. Optical rotations were determined on a Rudolf Research Analytical Autopol III Automatic Polarimeter (λ=589 nm, 25° C.).

[2] = system: L1210 murine leukemia cells; test: In vivo antitumor activity, L1210 implanted ip in B6D2F1 mice; parameters: species or system mouse
Experimental: [Wolfe et al., J. Med. Chem. 2012, 55:5878-5886.] Therefore, the preliminary evaluation of the in vivo antitumor activity of the cyclic N—O pro-drugs was assessed with Compound (+)-6 and was conducted alongside seco-CBI-indole2 (Compound 4) in an antitumor model consisting of L1210 murine leukemia cells implanted ip in B6D2F1 mice traditionally used to initially compare new duocarmycin derivatives (Table 3, below).
B6D2F1 mice were injected intraperitoneally (i.p.) with syngeneic L1210 cells (1×10^6) on day 0. Ten mice were randomly assigned to control vehicle or treatment groups for Compounds (+)-4 and (+)-6 at doses of 60, 100, 250, and 500 μg/kg/inj for Compounds (+)-4 or 60, 200, 500, 1000, and 2500 μg/kg/inj for Compounds (+)-6. Compounds (+)-4 and (+)-6 were formulated in 100% DMSO. Both compounds were injected i.p. on days 1, 5, and 9. Following injection of tumor cells, animals were monitored daily and weighed two times per week. Percent survival (T/C) for treated and control groups were determined by dividing the total survival days for each treatment group by the total survival days for the control group and multiplying×100. All animal studies were carried out in the animal facilities of The University of Kansas Medical Center with strict adherence to the guidelines of the IACUC Animal Welfare Committee of KUMC (IACUC approval #2009-1837).

[3] = Cleavage under reductive conditions; format: physicochemical; conditions: H2, Pd/C, MeOH, 23° C., 1 hour or Mo(CO)6, MeCN/H2O, reflux, 3 hours
Text: The greater stability of Compound 12 versus Compound 15 toward nucleophilic cleavage of the N—O bond can be attributed to the increased steric hindrance of the tertiary versus secondary nitrogen consistent with prior observations. [Lajiness et al., J. Med. Chem. 2010, 53:7731-7738]

[4] = Stability in acidic media
[5] = system: L1210 (ATCC CCL-219) mouse lymphocytic leukemia cells; test: Cell growth inhibition assay (phosphatase readout); format: cell-based
Experimental: Compounds were tested for their cell growth inhibition of L1210 (ATCC CCL-219) mouse lymphocytic leukemia cells. A population of cells (>1×10^6 cells/mL as determined with a hemocytometer) was diluted with an appropriate amount of Dulbecco-modified Eagle Medium (DMEM, Gibco) containing 10% fetal bovine serum (FBS, Gibco) to a final concentration of 30,000 cells/mL. To each well of a 96-well plate (Corning® Costar®), 100 μL of the cell-media solution was added with a multichannel pipette. The cultures were incubated at 37° C. in an atmosphere of 5% CO2 and 95% humidified air for 24 hours. The test compounds were added to the plate as follows: test substances were diluted in DMSO to a concentration of 1 mM and 10-fold serial dilutions were performed on a separate 96-well plate. Fresh culture medium (100 μL) was added to each well of cells to constitute 200 μL of medium per well followed by 2 μL of each test agent. Compounds were tested in duplicate (≧2 times) at six concentrations between 0-100 nM or 0-1000 nM. Following addition, cultures were incubated for an additional 72 hours.
A phosphatase assay was used to establish the IC50 values as follows: the media in each cell was removed and 100 μL of phosphatase solution (100 mg phosphatase substrate in 30 mL 0.1 M NaOAc, pH 5.5, 0.1% Triton® X-100 buffer) was added to each well. The plates were incubated at 37° C. for 5 minutes. After the given incubation time, 50 μL of 0.1 N NaOH was added to each well and the absorption at 405 nm was determined using a 96 well plate reader. As the absorption is directly proportional to the number of living cells, the IC50 values were calculated and the reported values represent of the average of ≧4 determinations (SD±10%).

[6] = not given; remark: listed apart in the source
[7] = 60 μg/kg i.p. on days 1, 5 and 9
[8] = 200 μg/kg i.p. on days 1, 5 and 9
[9] = 500 μg/kg i.p. on days 1, 5 and 9
[10] = 1000 μg/kg i.p. on days 1, 5 and 9
[11] = 2500 μg/kg i.p. on days 1, 5 and 9
[12] = Mus musculus, L1210, 72 h, read-out: IC50 L1210 unnatural, unnatural enantiomer, 72 hours

For `CN1Oc2cc3c(c4cccc(c24)C1=O)[C@H](CCl)CN3C(=O)c1cc2cc(NC(=O)c3cc4ccccc4[nH]3)ccc2[nH]1` [Compound 6, N-(2-(10-(Chloromethyl)-5-methyl-4-oxo-5,8,9,10-tetrahydro-4H-pyrrolo[3′,2′:5,6]naphtho[1,8-de][1,2]oxazine-8-carbonyl)-1H-indol-5-yl)-1H-indole-2-carboxamide], the “t1/2 in human plasma” value [1] was over 1 week, the “MSP (Mean Survival Period)” value [2, 7] was 28 days and the “Surviving Mice (live animals after 366 days)” value (“Surviving Mice” below) [2, 7] was 0/10. The “T/C = Treated/Control (MSP) × 100” value [2, 7] was 159, the “MSP (Mean Survival Period)” value [2, 8] was over 68 days and the “Surviving Mice” value [2, 8] was 1/10. The “T/C = Treated/Control (MSP) × 100” value [2, 8] was over 386, the “MSP (Mean Survival Period)” value [2, 9] was over 201 days and the “Surviving Mice” value [2, 9] was 4/10. The “T/C = Treated/Control (MSP) × 100” value [2, 9] was over 1142, the “MSP (Mean Survival Period)” value [2, 10] was over 199 days and the “Surviving Mice” value [2, 10] was 4/10. The “T/C = Treated/Control (MSP) × 100” value [2, 10] was over 1130, the “MSP (Mean Survival Period)” value [2, 11] was over 264 days and the “Surviving Mice” value [2, 11] was 6/10. For the same compound, the “T/C = Treated/Control (MSP) × 100” value [2, 11] was over 1500, the “cleavage under reductive conditions” value [3] was “rapidly cleaved” and the “t1/2 in pH 7.0 phosphate buffer” value was over 4 weeks. The “half-life in acidic media” value ([4]; 1:1 TFA/CH2Cl2, 23° C.) was 30 h, the “half-life (t1/2) in acidic media” value ([4]; 4 N HCl/EtOAc, 23° C. (12, 15: after initial Boc deprotection)) was over 72 h and the IC50 [5, 12] was 740 nM. For the same compound, the IC50 ([5]; read-out: IC50 L1210 natural, natural enantiomer, 72 hours) was 0.99 nM.

In the case of `O=C(Nc1ccc2[nH]c(C(=O)N3C[C@@H](CCl)c4c3cc3c5c(cccc45)C(=O)NO3)cc2c1)c1cc2ccccc2[nH]1` [Compound 7, N-(2-(10-(Chloromethyl)-4-oxo-5,8,9,10-tetrahydro-4H-pyrrolo[3′,2′:5,6]naphtho[1,8-de][1,2]oxazine-8-carbonyl)-1H-indol-5-yl)-1H-indole-2-carboxamide], the “free drug in mouse plasma” value [6] is reported as under 5%, the “t1/2 in human plasma” value [1] is reported as 4 days and the “t1/2 in pH 7.0 phosphate buffer” value is reported as 1 week. For the same compound, the IC50 [5, 12] was 65 nM and the IC50 ([5]; Mus musculus, L1210, natural enantiomer, 72 hours, read-out: IC50 L1210 natural) was 0.3 nM.
